Test results: patent US11498899B2, “Nitrone herbicides” (FMC Corporation, priority 2016, dated 2022)

What was measured:
[1] = test system: barnyardgrass (Echinochloa crus-galli); assay: Test A preemergence, visual injury rating 0-100 (0 no effect, 100 complete control); assay type: in vivo
[2] = test system: pigweed (Amaranthus retroflexus); assay: Test A preemergence, visual injury rating 0-100; assay type: in vivo
kochia (Kochia scoparia) [3] = assay: Test A preemergence, visual injury rating 0-100; assay type: in vivo
[4] = test system: foxtail, giant (giant foxtail, Setaria faberii); assay: Test A preemergence, visual injury rating 0-100; assay type: in vivo
[5] = test system: ragweed (common ragweed, Ambrosia elatior); assay: Test A preemergence, visual injury rating 0-100; assay type: in vivo
[6] = test system: ryegrass, Italian (Italian ryegrass, Lolium multiflorum); assay: Test A preemergence, visual injury rating 0-100; assay type: in vivo
[7] = test system: ducksalad (Heteranthera limosa); assay: Test B flooded paddy test, visual rating 0-100; conditions: Flood, 250 g ai/ha, applied to paddy water, rated after 13 to 15 days
[8] = test system: pigweed (Amaranthus retroflexus); assay: Test A postemergence, visual injury rating 0-100; assay type: in vivo; conditions: 0 to 100 scale
kochia (Kochia scoparia) [9] = assay: Test A postemergence, visual injury rating 0-100; assay type: in vivo; conditions: 0 to 100 scale
[10] = test system: galium (catchweed bedstraw, Galium aparine); assay: Test A postemergence, visual injury rating 0-100; assay type: in vivo; conditions: 0 to 100 scale
[11] = test system: foxtail, giant (giant foxtail, Setaria faberii); assay: Test A postemergence, visual injury rating 0-100; assay type: in vivo; conditions: 0 to 100 scale
[12] = test system: blackgrass (Alopecurus myosuroides); assay: Test A postemergence, visual injury rating 0-100; assay type: in vivo; conditions: 0 to 100 scale
[13] = test system: wheat (Triticum aestivum); assay: Test A postemergence, visual injury rating 0-100; assay type: in vivo; conditions: 0 to 100 scale
[14] = test system: ragweed (common ragweed, Ambrosia elatior); assay: Test A postemergence, visual injury rating 0-100; assay type: in vivo; conditions: 0 to 100 scale
corn (Zea mays) = assay: Test A postemergence, visual injury rating 0-100; assay type: in vivo; conditions: 0 to 100 scale
[15] = test system: ryegrass, Italian (Italian ryegrass, Lolium multiflorum); assay: Test A postemergence, visual injury rating 0-100; assay type: in vivo; conditions: 0 to 100 scale
[16] = test system: barnyardgrass (Echinochloa crus-galli); assay: Test A postemergence, visual injury rating 0-100; assay type: in vivo; conditions: 0 to 100 scale
[17] = test system: barnyardgrass (Echinochloa crus-galli); assay: Test B flooded paddy test, visual rating 0-100; conditions: Flood, 250 g ai/ha, applied to paddy water, rated after 13 to 15 days
rice (Oryza sativa) = assay: Test B flooded paddy test, visual rating 0-100 (0 no effect, 100 complete control); conditions: Flood, 250 g ai/ha, applied to paddy water, rated after 13 to 15 days

Row | Structure (SMILES) | Barnyardgrass plant response rating (0 to 100 scale) ([1]; 125 g ai/ha) | Barnyardgrass plant response rating (0 to 100 scale) ([1]; 500 g ai/ha) | Pigweed plant response rating (0 to 100 scale) ([2]; 125 g ai/ha) | Pigweed plant response rating (0 to 100 scale) ([2]; 500 g ai/ha) | Kochia plant response rating (0 to 100 scale) (kochia (Kochia scoparia) [3]; 125 g ai/ha) | Kochia plant response rating (0 to 100 scale) (kochia (Kochia scoparia) [3]; 500 g ai/ha) | Foxtail, Giant plant response rating (0 to 100 scale) ([4]; 125 g ai/ha) | Foxtail, Giant plant response rating (0 to 100 scale) ([4]; 500 g ai/ha) | Ragweed plant response rating (0 to 100 scale) ([5]; 125 g ai/ha) | Ragweed plant response rating (0 to 100 scale) ([5]; 500 g ai/ha) | Ryegrass, Italian plant response rating (0 to 100 scale) ([6]; 125 g ai/ha) | Ryegrass, Italian plant response rating (0 to 100 scale) ([6]; 500 g ai/ha) | Ducksalad plant response rating (0 to 100 scale) [7] | Pigweed plant response rating ([8]; 125 g ai/ha) | Pigweed plant response rating ([8]; 500 g ai/ha) | Kochia plant response rating (kochia (Kochia scoparia) [9]; 125 g ai/ha) | Kochia plant response rating (kochia (Kochia scoparia) [9]; 500 g ai/ha) | Galium plant response rating ([10]; 125 g ai/ha) | Galium plant response rating ([10]; 500 g ai/ha) | Foxtail, Giant plant response rating ([11]; 125 g ai/ha) | other results
1 | CC1=[N+]([O-])C(C(=O)Nc2cccc(F)c2F)C(c2ccc(F)c(C(F)(F)F)c2)C1 (racemic) [Compound 64] | 90 | 90 | 50 | 80 | 20 | 80 | 90 | 90 | 0 | 70 | 90 | 90 | 70 | 0 | 50 | 0 | 30 | 40 | 70 | 70 | Foxtail, Giant plant response rating ([11]; 500 g ai/ha): 90; Blackgrass plant response rating ([12]; 125 g ai/ha): 80; Blackgrass plant response rating ([12]; 500 g ai/ha): 80; Wheat plant response rating ([13]; 125 g ai/ha): 70; Wheat plant response rating ([13]; 500 g ai/ha): 90; Ragweed plant response rating ([14]; 125 g ai/ha): 10; Ragweed plant response rating ([14]; 500 g ai/ha): 40; Corn plant response rating (corn (Zea mays); 125 g ai/ha): 90; Corn plant response rating (corn (Zea mays); 500 g ai/ha): 90; Ryegrass, Italian plant response rating ([15]; 125 g ai/ha): 70; Ryegrass, Italian plant response rating ([15]; 500 g ai/ha): 80; Barnyardgrass plant response rating ([16]; 125 g ai/ha): 70; Barnyardgrass plant response rating ([16]; 500 g ai/ha): 90; Barnyardgrass plant response rating (0 to 100 scale) [17]: 60; Rice plant response rating (0 to 100 scale) (rice (Oryza sativa)): 0
2 | CC1=[N+]([O-])C(C(=O)Nc2cccc(F)c2F)C(c2cccc(Br)n2)C1 (racemic) [Compound 65] | 0 | 90 | 0 | 0 | 0 | 0 | 0 | 90 | 0 | 0 | 0 | 100 | 60 | 0 | 0 | 0 | 0 | 0 | 30 | 0 | Foxtail, Giant plant response rating ([11]; 500 g ai/ha): 20; Blackgrass plant response rating ([12]; 125 g ai/ha): 0; Blackgrass plant response rating ([12]; 500 g ai/ha): 0; Wheat plant response rating ([13]; 125 g ai/ha): 0; Wheat plant response rating ([13]; 500 g ai/ha): 10; Ragweed plant response rating ([14]; 125 g ai/ha): 0; Ragweed plant response rating ([14]; 500 g ai/ha): 0; Corn plant response rating (corn (Zea mays); 125 g ai/ha): 0; Corn plant response rating (corn (Zea mays); 500 g ai/ha): 0; Ryegrass, Italian plant response rating ([15]; 125 g ai/ha): 0; Ryegrass, Italian plant response rating ([15]; 500 g ai/ha): 0; Barnyardgrass plant response rating ([16]; 125 g ai/ha): 0; Barnyardgrass plant response rating ([16]; 500 g ai/ha): 0; Barnyardgrass plant response rating (0 to 100 scale) [17]: 15; Rice plant response rating (0 to 100 scale) (rice (Oryza sativa)): 10
3 | CC1=[N+]([O-])C(C(=O)Nc2cccc(F)c2F)C(c2ccc(Br)cn2)C1 (racemic) [Compound 66] | 0 | 20 | 0 | 0 | 0 | 0 | 10 | 70 | 0 | 0 | 0 | 0 | 75 | 0 | 0 | 0 | 0 | 0 | 0 | 0 | Foxtail, Giant plant response rating ([11]; 500 g ai/ha): 0; Blackgrass plant response rating ([12]; 125 g ai/ha): 0; Blackgrass plant response rating ([12]; 500 g ai/ha): 0; Wheat plant response rating ([13]; 125 g ai/ha): 0; Wheat plant response rating ([13]; 500 g ai/ha): 0; Ragweed plant response rating ([14]; 125 g ai/ha): 0; Ragweed plant response rating ([14]; 500 g ai/ha): 0; Corn plant response rating (corn (Zea mays); 125 g ai/ha): 0; Corn plant response rating (corn (Zea mays); 500 g ai/ha): 0; Ryegrass, Italian plant response rating ([15]; 125 g ai/ha): 0; Ryegrass, Italian plant response rating ([15]; 500 g ai/ha): 0; Barnyardgrass plant response rating ([16]; 125 g ai/ha): 0; Barnyardgrass plant response rating ([16]; 500 g ai/ha): 0; Barnyardgrass plant response rating (0 to 100 scale) [17]: 35; Rice plant response rating (0 to 100 scale) (rice (Oryza sativa)): 15
